{"source": "patent US4127665A", "about": "“Thienohydantoin derivatives” (Pfizer Inc., priority 1978, dated 1978)", "key": {"aldose reductase": {"molecular_target": "T1, aldose reductase (Bos taurus, UniProt P16116)", "T1 construct": "partially purified aldose reductase enzyme obtained from calf lens; from tissue; host or cells: calf lens", "assay": "Inhibition of aldose reductase enzyme activity (partially purified enzyme from calf lens)", "assay_type": "biochemical", "settings": "for inhibition at 100 µM: 10^-4 M; for inhibition at 10 µM: 10^-5 M; for inhibition at 1 µM: 10^-6 M; for inhibition at 1 µM / inhibition at 0.1 µM: low negative values not significant; for inhibition at 0.1 µM: 10^-7 M", "procedure": "The spiro-thienohydantoins of Examples 1 through 5 were tested for their ability to reduce or inhibit aldose reductase enzyme activity, following the procedure described in U.S. Pat. No. 3,821,383 and based on the procedure of Hayman et. al., Journal of Biological Chemistry, 240, 877 (1965). The substrate employed was partially purified aldose reductase enzyme obtained from calf lens. The results obtained with each compound at a concentration of 10^-4 M are expressed as percent inhibition of enzyme activity.\nThe test of Example 6 was repeated at different concentrations of the compound under test, namely 10^-4 M, 10^-5 M, 10^-6 M, and 10^-7 M.\nIn this test, values below 20 are not always experimentally and statistically significant."}, "[1]": {"tested_on": "sorbitol accumulation in the sciatic nerve of streptozotocinized (i.e., diabetic) rats", "assay": "Inhibition of sorbitol accumulation in the sciatic nerve of streptozotocinized (diabetic) rats", "assay_type": "in vivo, rat", "settings": "measured 27 hours after induction, vs untreated", "procedure": "The compounds of Examples 4 and 5 were tested for their ability to reduce or inhibit sorbitol accumulation in the sciatic nerve of streptozotocinized (i.e., diabetic) rats by the procedure essentially described in U.S. Pat. No. 3,821,383. In the present study, the amount of sorbitol accumulation in the sciatic nerves was measured 27 hours after induction of diabetes. The compounds were administered orally at the dose levels indicated at 4, 8 and 24 hours following the administration of streptozotocin. The results obtained in this manner are presented below in terms of percent inhibition (%) afforded by the test compound as compared to the case where no compound was administered (i.e., the untreated animal where sorbitol levels normally rise from approximately 50-100 mM/g. tissue to as high as 400 mM/g. tissue in the 27-hour test period): […]"}, "[2]": {"settings": "Example 6 test, calf lens enzyme, read-out: % Inhibition at 10^-4 M"}, "[3]": {"settings": "Example 7 repeat test, values below 20 not always significant, read-out: % Inhibition"}, "[4]": {"settings": "Example 7 repeat test, values below 20 not always significant"}}, "note": "Like-named read-outs stand apart in the source and are kept apart here.", "data": [{"smiles": "O=C1NC(=O)C2(CCc3c(Cl)sc(Cl)c32)N1", "note": "(stereo not shown) [Example 1]", "values": [{"measurement": "inhibition at 100 µM", "setting": "aldose reductase; [2]", "value": 83, "unit": "%"}, {"measurement": "inhibition at 100 µM", "setting": "aldose reductase; [3]", "value": 88, "unit": "%"}, {"measurement": "inhibition at 10 µM", "setting": "aldose reductase; [4]", "value": 67, "unit": "%"}, {"measurement": "inhibition at 1 µM", "setting": "aldose reductase; [4]", "value": 12, "unit": "%"}, {"measurement": "inhibition at 0.1 µM", "setting": "aldose reductase; [4]", "value": -7, "unit": "%"}]}, {"smiles": "O=C1NC(=O)C2(CCc3c2csc3Cl)N1", "note": "(stereo not shown) [Example 2]", "values": [{"measurement": "inhibition at 100 µM", "setting": "aldose reductase; [2]", "value": 95, "unit": "%"}, {"measurement": "inhibition at 100 µM", "setting": "aldose reductase; [3]", "value": 35, "unit": "%"}, {"measurement": "inhibition at 10 µM", "setting": "aldose reductase; [4]", "value": 67, "unit": "%"}, {"measurement": "inhibition at 1 µM", "setting": "aldose reductase; [4]", "value": -12, "unit": "%"}, {"measurement": "inhibition at 0.1 µM", "setting": "aldose reductase; [4]", "value": 21, "unit": "%"}]}, {"smiles": "O=C1NC(=O)C2(CCc3cscc32)N1", "note": "(stereo not shown) [Example 3]", "values": [{"measurement": "inhibition at 100 µM", "setting": "aldose reductase; [2]", "value": 46, "unit": "%"}]}, {"smiles": "O=C1NC(=O)C2(CCc3sc(Cl)cc32)N1", "note": "(stereo not shown) [Example 4]", "values": [{"measurement": "inhibition at 100 µM", "setting": "aldose reductase; [2]", "value": 80, "unit": "%"}, {"measurement": "inhibition at 100 µM", "setting": "aldose reductase; [3]", "value": 75, "unit": "%"}, {"measurement": "inhibition at 10 µM", "setting": "aldose reductase; [4]", "value": 55, "unit": "%"}, {"measurement": "inhibition at 1 µM", "setting": "aldose reductase; [4]", "value": 18, "unit": "%"}, {"measurement": "inhibition at 0.1 µM", "setting": "aldose reductase; [4]", "value": 15, "unit": "%"}, {"measurement": "% Inhibition (sorbitol accumulation in sciatic nerve)", "setting": "[1]; 2.5 mg/kg orally at 4, 8 and 24 hours after streptozotocin", "value": 20, "unit": "%"}]}, {"smiles": "O=C1NC(=O)C2(CCCc3sccc32)N1", "note": "(stereo not shown) [Example 5, 6,7-dihydro-spiro[benzo(b)thiophene-4(5H),4'-imidazolidine]-2',5'-dione]", "values": [{"measurement": "inhibition at 100 µM", "setting": "aldose reductase; [2]", "value": 52, "unit": "%"}, {"measurement": "% Inhibition (sorbitol accumulation in sciatic nerve)", "setting": "[1]; 25 mg/kg orally at 4, 8 and 24 hours after streptozotocin", "value": 56, "unit": "%"}]}]}
